Experimental data reported in patent US20240279149A1 (ZHEJIANG OCEAN UNIVERSITY, priority 2021, published 2024).

Columns and labels:
[1] = tested on: total number of colonies of the Chinese tube whip shrimps; assay: Total sterilization effect experiment: total number of colonies (aerobic plate count) of photodynamically treated shrimp in 4° C. storage; format: cell-based; conditions: 20 μmol/L
Experimental: The total sterilization effect experiment and sensory evaluation of the Chinese tube whip shrimps obtained from Application Example 1, Comparative Application Example 1, and Comparative Application Example 2 were carried out. The specific steps are as follows: • (1) the Chinese tube whip shrimps obtained from Application Example 1, Comparative Application Example 1, and Comparative Application Example 2 were put into a fresh-keeping bag of a fresh-keeping box, and stored in a refrigerator at 4° C.; • (2) when stored for 2, 4, 6, 8, and 10 days, according to the method specified in the national standard GB/T 4789.2-2016 Food Microbiological Examination—Aerobic Plate Count, the total number of colonies of the Chinese tube whip shrimps treated in step (1) was measured; and • (3) when stored for 2, 4, 6, 8, and 10 days, a sensory evaluation team conducted sensory scores on the stored shrimps; the sensory score team was composed of 10 strictly trained personnel to evaluate the appearance, odor, and posture of the processed Chinese tube whip shrimps, and the average value was taken. The scoring criteria are shown in Table 1, and the sensory score result is the sum of the 3 indicator scores with a total score of 18 indicating absolute freshness and 9 indicating significant quality deterioration.
From this, it can be seen that the shelf life of refrigerated Chinese tube whip shrimp in Comparative Application Example 1 and Comparative Application Example 2 is only 4 days.

[2] = Singlet oxygen generation ability, ABDA absorbance decay method; format: physicochemical; conditions: 5 μmol/L compound, 50 μmol/L ABDA, aqueous solution, blue LED 470 nm, 20 mW/cm^2, 180 s; FIG. 4

SMILES | bacterial growth (total number of colonies) ([1]; soaking 10 min, blue LED 10 W, 470 nm, 120 s, stored at 4° C. for 2-10 days, vs Comparative Application Examples 1 and 2, p<0.05, FIG. 6) | freshness level by total number of colonies ([1]; after 10 days of refrigeration at 4° C., blue LED 10 W, 470 nm, 120 s) | freshness level by total number of colonies ([1]; on the 4th day of refrigeration at 4° C., blue LED 10 W, 470 nm, 120 s) | shelf life of fresh shrimp (in words) ([1]; photodynamic treatment of Chinese tube whip shrimp, stored at 4° C.) | singlet oxygen generation ability [2] | shelf life of refrigerated Chinese tube whip shrimp ([1]; soaking 10 min, blue LED 10 W, 470 nm, 120 s, stored at 4° C., end of shelf life by total number of colonies)
COc1cc(/C=C/C=C/C(O)=C/C(=O)/C=C/c2ccc(Br)c(OC)c2)ccc1Br [Embodiment 1] | significantly inhibited | approached second-level freshness | first-level freshness (the shrimp with a total number of colonies of ≤10^5 CFU/g is considered as first-level freshness) | significantly prolonged | higher than that of the single bromine substituted curcumin derivative obtained in Embodiment 2 | 
COc1cc(/C=C/C(=O)CC(=O)/C=C/c2ccc(O)c(OC)c2)ccc1O [natural curcumin, curcumin, reference compound] |  |  |  |  |  | 4 days
